Read-outs that look alike come from different tables or passages of the source. Marks after values point to notes of the source that are not given here.
How the values were obtained:
[1] = test system: human NCI-H1975 xenograft tumor model; assay: Example 9: Compound 5 with AZD9291 or Avitinib in xenograft tumor model; format: in vivo, mouse; details: Compound 5 50 mg/kg, AZD9291 2 mg/kg, Avitinib 10 mg/kg, orally, once per day
From the text: (§1) The dosage regimen was as follows:

NCI-H1975 tumor cells = assay: WST (CCK-8) anti-proliferation experiment, single drugs and combinations; format: cell-based; details: Homo sapiens, NCI-H1975, 72 hours
Procedure: Cell plating: Anti-proliferative effects were detected by a CCK-8 (Cell Counting Kit-8) assay based on water soluble tetrazolium salt (WST). The cells were seeded in 96-well plates, and only 95 μL of complete medium was added to each negative control group. 95 μL of complete medium cell suspension was added to each well to be tested, and the cell density was […]. Dosing (protection from light): In 96-well culture plates, according to the sensitivity of different cells to different drugs, the highest concentration was selected as 10 μM, and 9 concentrations were obtained by serial dilution in a ratio of 1:3.5 μL of compound was added to each well and 2-3 replicate wells were made for per concentration. After the compound was added, 96-well plates were incubated in a 5% CO2 incubator at 37° C. After 72 hours of action by using 9 different concentrations of the drug with 3 fixed doses of Compound 5, the combination effect of Compound 5 and the drug was tested. Reading: At the end of the culture, the old solution was removed from the well to be tested, and 100 μl/well CCK-8 test solution (containing 10% CCK-8, 5% FBS in the corresponding medium) was added. The plates were continuously incubated at 37° C. for 2-4 hours in a CO2 incubator. The OD values were measured using a microplate reader (SpectraMax Plus 384, Molecular Devices, LLC., US) under A450 nm. […] (O.D. of test well−O.D. of blank control well)/(O.D. of cell control well−O.D. of blank control well)×100%. IC50 values were calculated using Graphpad Prism 6.0 software for nonlinear regression data analysis method.

[2] = test system: human NCI-H1975 lung cancer mouse xenograft tumor model; assay: Example 4: Compound 5 with AZD9291 or afatinib in xenograft tumor model; format: in vivo; details: for RTV on Day 15 after administration (mean ± standard error) / T/C on Day 15 after administration (%): Compound 5 100 mg/kg, AZD9291 5 then 2 mg/kg, afatinib 10 then 5 mg/kg, orally, once per day
From the text: Subsequently, a H1975 cell-derived mouse xenograft tumor model was established to evaluate the anti-tumor effects of Compound 5 in combination with EGFR inhibitor AZD9291 (osimertinib) or afatinib.

[3] = test system: human NCI-H1975 xenograft tumor model; assay: Example 8: Compound 5 or Ensartinib with Avitinib in xenograft tumor model; format: in vivo, mouse; details: Compound 5 50 mg/kg; Ensartinib 20 mg/kg; Avitinib 10 mg/kg; orally, once per day, 21 days
From the text: as §1

[4] = single EGFR inhibitor, read-out: Compound B IC50

| IC50 (NCI-H1975 tumor cells; single drug, read-out: Compound A IC50) | Compound | RTV on Day 11 after administration (mean ± standard error) [1] | T/C on Day 11 after administration (%) [1] | RTV on Day 15 after administration (mean ± standard error) [1] | T/C on Day 15 after administration (%) [1] | IC50 (NCI-H1975 tumor cells; [4]) | RTV on Day 15 after administration (mean ± standard error) [2] | T/C on Day 15 after administration (%) [2] | tumor after discontinuation of administration ([2]; after discontinuation of administration) | RTV on Day 21 after administration (mean ± standard error) [3] | T/C on Day 21 after administration (%) [3] | T/C on Day 15 after administration (%) ([2]; listed as Afatinib) |
| --- | --- | --- | --- | --- | --- | --- | --- | --- | --- | --- | --- | --- |
| – | C=CC(=O)Nc1cc(Nc2nccc(-c3cn(C)c4ccccc34)n2)c(OC)cc1N(C)CCN(C)C [AZD9291, osimertinib] | 1.6 ± 0.3 | 1.6** % | 1.8 ± 0.2 | 16.8% | 410 nM | 1.4 ± 0.2 | 6% | tumor rebound was gradually observed | – | – | – |
| – | C=CC(=O)Nc1cccc(Oc2nc(Nc3ccc(N4CCN(C)CC4)c(F)c3)nc3[nH]ccc23)c1 [Avitinib] | 5.9 ± 0.4 | 82.0% | 7.8 ± 0.7 | 72.4% | – | – | – | – | 13.29 ± 2.65 | 83.1% | – |
| 3550 ± 1110 nM | Cc1cc(Nc2ncc(Cl)c(Nc3ccccc3S(=O)(=O)C(C)C)n2)c(OC(C)C)cc1C1=CCN(C2CCOCC2)CC1 [Compound 5, 5-chloro-N^2-(2-isopropoxy-5-methyl-4-(1-(tetrahydro-2H-pyran-4-yl)-1,2,3,6-tetrahydropyridin-4-yl)phenyl)-N^4-(2-(isopropylsulfonyl)phenyl)pyrimidine-2,4-diamine] | 8.2 ± 0.5 | 113.8% | 10.3 ± 1.1 | 95.6% | – | 13.8 ± 1.8 | 66.0% | – | 12.8 ± 1.5 | 80% | – |
| – | C[C@@H]1CN(C(=O)c2ccc(NC(=O)c3cc(O[C@H](C)c4c(Cl)ccc(F)c4Cl)c(N)nn3)cc2)C[C@H](C)N1 [Ensartinib] | – | – | – | – | – | – | – | – | 9.5 ± 1.1 | 61.3% | – |
| – | CN(C)C/C=C/C(=O)Nc1cc2c(Nc3ccc(F)c(Cl)c3)ncnc2cc1O[C@H]1CCOC1 [afatinib] | – | – | – | – | 337 nM | 15.5 ± 1.5 | 74% | – | – | – | 74.0% |

From patent US11478477B2, “Method for treating cancer by combination of FAK/ALK/ROS1 inhibitor and EGFR inhibitor” (ASCENTAGE PHARMA (SUZHOU) CO., LTD., priority 2018, dated 2022)
